The nature of data set [1]: Parallel artificial membrane permeation assay for blood-brain barrier (PAMPA-BBB). The note with it: for Papp: pig, PBS:EtOH (70:30), read-out: Blood-brain barrier permeability Pe; for CNS prediction: predictive penetration in the CNS from Pe. In kind it is in vitro ADME, porcine. The method, then:
A parallel artificial membrane permeation assay for blood-brain barrier (PAMPA-BBB) was used to evaluate the brain penetration of compounds of formula I, following the method described by L. Di et al., “High throughput artificial membrane permeability assay for blood-brain barrier”, European Journal of Medicinal Chemistry 2003, vol. 38. pp. 223-232. The in vitro permeability (Pe) of the test compounds through a lipid extract of porcine brain membrane was determined. Assayed compounds were tested using a mixture of PBS:EtOH (70:30). Assay validation was made by comparing the experimental and reported permeability values of a set of fourteen commercial drugs and a lineal correlation between experimental and reported permeability values of the fourteen commercial drugs was obtained (y=1.678 x−1.447; R^2=0.9313). From this equation and taking into account the limits established by Di et al. for BBB permeation, the ranges of permeability were established, as follows. Compounds of high BBB permeation (CNS+): Pe (10^−6 cm s^−1)>5.26; compounds of low BBB permeation (CNS−): Pe (10^−6 cm s^−1)<1.91; and compounds of uncertain BBB permeation (CNS+/−): 5.26>Pe (10^−6 cm s^−1)>1.91. The permeability results are averages of three different experiments in triplicate and a predictive penetration in the CNS is also given (Table 5).

The target of data set [2] is T1, recombinant human sEH (hsEH) (Homo sapiens, UniProt P34913).
T1 sequence (P34913 1-555): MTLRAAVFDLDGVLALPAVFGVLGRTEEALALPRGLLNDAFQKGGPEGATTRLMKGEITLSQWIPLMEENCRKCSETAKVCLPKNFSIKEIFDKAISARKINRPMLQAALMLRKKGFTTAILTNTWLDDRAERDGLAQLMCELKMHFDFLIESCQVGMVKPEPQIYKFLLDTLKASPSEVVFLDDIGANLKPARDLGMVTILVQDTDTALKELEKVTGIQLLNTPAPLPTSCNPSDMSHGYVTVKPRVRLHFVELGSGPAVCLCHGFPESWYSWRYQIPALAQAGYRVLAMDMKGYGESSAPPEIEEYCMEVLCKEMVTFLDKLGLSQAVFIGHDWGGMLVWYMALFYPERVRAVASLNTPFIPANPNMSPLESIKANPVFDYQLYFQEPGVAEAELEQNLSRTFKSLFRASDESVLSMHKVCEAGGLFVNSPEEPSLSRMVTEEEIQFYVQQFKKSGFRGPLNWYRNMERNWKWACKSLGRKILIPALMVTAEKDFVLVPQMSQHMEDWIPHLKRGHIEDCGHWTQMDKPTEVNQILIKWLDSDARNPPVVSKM
Put plainly: In vitro determination of sEH inhibitory activity (fluorescent PHOME assay).
Protocol: Control compound (TPPU): N-[1-(1-Oxopropyl)-4-piperidinyl]-N′-[4-(trifluoromethoxy)phenyl]urea.
Five μL of DMSO were added to background and positive control wells, and then 5 μL of inhibitor solution were added in the inhibitor wells. Five μL of the solution of hsEH were added to the positive control and inhibitor wells and the mixture was stirred. A 1/21 dilution of the solution of PHOME with assay buffer was prepared according to the final volume required, and then 105 μL of each well were added. The plate was carefully shaken for 10 seconds and was incubated for 5 minutes at room temperature. […] The intensity of fluorescence was used to analyze and calculate the IC50 values. Results were obtained by regression analysis from at least three data points in a linear region of the curve. IC50 values are average of minimum three independent replicates.

Data set [3] addresses T2, human recombinant glutaminyl cyclase (hQC) (Homo sapiens, UniProt Q16769).
T2 construct: purchased Eurogentec AS-72230
Put plainly: In vitro determination of human QC inhibitory activity (SensoLyte Green Glutaminyl Cyclase Activity Assay Kit). In kind it is biochemical. The method, then:
Basic statistical analysis was performed.

Another data set deals with LPS stimulated BV2 cells. The experiment in a line: Cytokine release in LPS stimulated BV2 cells. In kind it is cell-based, murine. The note with it: compound 10 μM, 24 h. The method, then:
Compounds of formula I were diluted from 250 mM DMSO stock solutions to a 10 mM stock in DMSO. Thereafter, the compounds were diluted to 10 μM and 1 μM in medium, so that the final DMSO concentration in the well was 0.1% for all conditions. The stock solutions were stored at −20° C. until further use.
Culture and treatment of BV-2 cells: The murine microglial cell line BV-2 was cultivated in Dulbecco's modified eagle medium (DMEM) supplemented with 10% fetal calf serum (FCS), 1% penicillin/streptomycin and 2 mM L-glutamine (culture medium). For the lipopolysaccharide (LPS) stimulation assay, 20,000 BV-2 cells per well (uncoated 96 well plates) were plated out. After 48 h, the medium was changed to treatment medium (DMEM, 5% FCS, 2 mM L-glutamine) and cells were maintained in treatment medium for the remaining culture period. After changing cells to treatment medium, the compounds were administered 1 h before LPS stimulation (Sigma-Aldrich; L6529; 1 mg/mL stock in ddH2O, final concentration in well: 100 ng/mL (dilutions in medium)). Cells treated with vehicle and LPS alone served as controls. All wells were handled the same way. After 24 h of stimulation, cell supernatants were collected for the cytokine measurement. The experiment was performed in n=6 technical replicates for all groups.
Cytokine measurement: The samples were diluted 1:2 and analysed for 4 cytokines (IL-1β, IL-2, IL-6, TNF-α) with a commercially available immunosorbent assay kit (U-plex, K15069L, Mesoscale Discovery) according to the instructions of the manufacturer. In brief, 25 μL of diluent 41 and 25 μL sample or respective standard were placed into wells of the pre-coated U-plex plate and incubated on an orbital shaker at room temperature for 1 h. Plates were washed 3 times with phosphate buffered saline with 0.05% Tween 20 (PBST) and thereafter 50 μL of detection antibody were added. Plates were again incubated on an orbital shaker at room temperature for 1 h. After another 3 washing steps with PBST, 150 μL of Mesoscale Discovery (MSD) GOLD Read Buffer were added and plates were read on Sector imager. Data were evaluated in comparison to calibration curves provided in the kit.
Statistics: Basic statistical analysis was performed. Group differences were evaluated by e.g. one-way ANOVA followed by a posthoc test, if appropriate.

T2 sequence (Q16769 29-361): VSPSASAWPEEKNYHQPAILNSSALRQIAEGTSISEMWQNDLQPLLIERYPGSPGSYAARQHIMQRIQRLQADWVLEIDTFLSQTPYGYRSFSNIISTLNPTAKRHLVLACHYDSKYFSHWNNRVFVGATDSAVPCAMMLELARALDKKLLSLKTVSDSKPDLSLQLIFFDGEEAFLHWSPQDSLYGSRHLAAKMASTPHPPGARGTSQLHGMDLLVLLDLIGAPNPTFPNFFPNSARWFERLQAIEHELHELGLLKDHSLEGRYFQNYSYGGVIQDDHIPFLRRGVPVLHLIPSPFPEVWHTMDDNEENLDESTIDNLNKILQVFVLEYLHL

Broadly, the IC50 is the concentration needed to halve the response being measured. For `Cc1cncn1CCCNC(=O)NC12CC3CC(CC1C3)C2` [It, 1-(noradamantan-3-yl)-3-[3-(5-methyl-1H-imidazol-1-yl)propyl]urea], in data set [1], the Papp was determined as 5.8 ×10⁻⁶ cm/s and the CNS prediction entry is “CNS+ (Compounds of high BBB permeation (CNS+): Pe (10^−6 cm s^−1)>5.26)”. The IC50 in data set [2] worked out at 185 nM. In data set [3], the IC50 is 460 nM.
For the molecule `Cc1cncn1CCCNC(=O)NCCC12CC3CC(CC(C3)C1)C2` [Io, 1-[2-(adamantan-1-yl)ethyl]-3-[3-(5-methyl-1H-imidazol-1-yl)propyl]urea], in data set [1], the Papp came out at 18.7 ×10⁻⁶ cm/s and the CNS prediction entry is on record as “CNS+ (Compounds of high BBB permeation (CNS+): Pe (10^−6 cm s^−1)>5.26)”. The IC50 in data set [2] amounted to 1.3 nM. Further, in data set [3], the IC50 was 1650 nM.
`Cc1cncn1CCCNC(=O)NC12CC3CC(CC(O)(C3)C1)C2` [Ih, 1-(3-hydroxyadamantan-1-yl)-3-[3-(5-methyl-1H-imidazol-1-yl)propyl]urea]: the IC50 in data set [2] amounted to 330 nM; in data set [3], 1040 nM.
Take `Cc1cncn1CCCNC(=O)NCCC1C2CC3CC(C2)CC1C3` (stereo not shown) [Ip, 1-[2-(adamantan-2-yl)ethyl]-3-[3-(5-methyl-1H-imidazol-1-yl)propyl]urea]: in data set [1], the Papp worked out at 13 ×10⁻⁶ cm/s and the CNS prediction result was “CNS+ (Compounds of high BBB permeation (CNS+): Pe (10^−6 cm s^−1)>5.26)”. Also, in data set [2], the IC50 stood at 95 nM. In addition, the IC50 in data set [3] is 1450 nM.
For `Cc1cncn1CCCNC(=O)NCC12CC3CC(CC1C3)C2` [Iu, 1-[(noradamantan-3-yl)methyl]-3-[3-(5-methyl-1H-imidazol-1-yl)propyl]urea], in data set [1], the Papp is 5.4 ×10⁻⁶ cm/s and the CNS prediction result is reported as “CNS+ (Compounds of high BBB permeation (CNS+): Pe (10^−6 cm s^−1)>5.26)”. For the same molecule, the IC50 in data set [2] was 194 nM.
As for `Cc1cncn1CCCNC(=O)NCC12CC3(C)C4(C)CC1CC4(C)C3(C)C2` [Iw, 1-[3-(5-methyl-1H-imidazol-1-yl)propyl]-3-[(3,4,8,9-tetramethyltetracyclo[4.4.0.0^3,9.0^4,8]decan-1-yl)methyl]urea], the IC50 in data set [2] stood at 72 nM; in data set [3], 6800 nM.
Turning to `Cc1cncn1CCCNC(=O)NC12CC3CC(C)(CC(C)(C3)C1)C2` [Ie, 1-(3,5-dimethyladamantan-1-yl)-3-[3-(5-methyl-1H-imidazol-1-yl)propyl]urea], in data set [1], the Papp was found to be 8.8 ×10⁻⁶ cm/s and the CNS prediction entry is reported as “CNS+ (Compounds of high BBB permeation (CNS+): Pe (10^−6 cm s^−1)>5.26)”. The IC50 in data set [2] came to 29 nM. Also, in data set [3], the IC50 amounted to 2100 nM.
The corresponding values for `Cc1cncn1CCCNC(=O)NC1C2CC3CC(C2)CC1(F)C3` (racemic) [Iaa, (±)-1-(1-fluoroadamantan-2-yl)-3-[3-(5-methyl-1H-imidazol-1-yl)propyl]urea] are 7.4 ×10⁻⁶ cm/s, “CNS+ (Compounds of high BBB permeation (CNS+): Pe (10^−6 cm s^−1)>5.26)”, 5900 nM and 767 nM.
As for `Cc1cncn1CCCNC(=O)NC12CC3CC(CC(C3)O1)C2` [Iq, 1-(2-oxaadamantan-1-yl)-3-[3-(5-methyl-1H-imidazol-1-yl)propyl]urea], in data set [1], the Papp amounted to 26.4 ×10⁻⁶ cm/s and the CNS prediction result is given as “CNS+ (Compounds of high BBB permeation (CNS+): Pe (10^−6 cm s^−1)>5.26)”. Also, in data set [2], the IC50 was determined as 5100 nM.
As to `Cc1cncn1CCCNC(=O)NC12CC3(C)C4(C)CC1CC4(C)C3(C)C2` [Iv, 1-[3-(5-methyl-1H-imidazol-1-yl)propyl]-3-(3,4,8,9-tetramethyltetracyclo[4.4.0.0^3,9.0^4,8]decan-1-yl)urea], in data set [1], the Papp amounted to 7.5 ×10⁻⁶ cm/s. Besides, in data set [1], the CNS prediction result is listed as “CNS+ (Compounds of high BBB permeation (CNS+): Pe (10^−6 cm s^−1)>5.26)”. Besides, the IC50 in data set [2] was 103 nM; in data set [3], 540 nM.
As for `Cc1cncn1CCCNC(=O)N[C@H]1C2CC3CC1C[C@](Cl)(C3)C2` [Iab, trans-1-(5-chloroadamantan-2-yl)-3-[3-(5-methyl-1H-imidazol-1-yl)propyl]urea], in data set [1], the Papp came out at 13.1 ×10⁻⁶ cm/s and the CNS prediction entry is recorded as “CNS+ (Compounds of high BBB permeation (CNS+): Pe (10^−6 cm s^−1)>5.26)”. The IC50 in data set [2] is 39 nM. Also, in data set [3], the IC50 came out at 559 nM.
Regarding `O=C(NCCCn1ccnc1)NC12CC3CC(CC(C3)C1)C2` [Ib, 1-[3-(1H-imidazol-1-yl)propyl]-3-(adamantan-1-yl)urea], the figures for the IC50 in data set [2] and in data set [3] were 93 nM and 12700 nM, respectively.
Regarding `Cc1cncn1CCCNC(=O)NC12CC3CC(CC(Cl)(C3)C1)C2` [If, 1-(3-chloroadamantan-1-yl)-3-[3-(5-methyl-1H-imidazol-1-yl)propyl]urea], the IC50 in data set [2] stood at 37 nM; in data set [3], 990 nM.
With `CCC(=O)N1CCC(NC(=O)Nc2ccc(OC(F)(F)F)cc2)CC1` [TPPU, N-[1-(1-Oxopropyl)-4-piperidinyl]-N′-[4-(trifluoromethoxy)phenyl]urea, reference compound], in the data set on LPS stimulated BV2 cells, the IL-1β level is 125 % of vehicle control, the IL-2 level is 113 % of vehicle control, the IL-6 level was 117 % of vehicle control and the TNF-α level was 96 % of vehicle control.
On to `C[C@@H]1C[C@H]2[C@@H]3CCC4=CC(=O)C=C[C@]4(C)[C@@]3(F)[C@@H](O)C[C@]2(C)[C@@]1(O)C(=O)CO` [dexamethasone, reference compound], for which, in the data set with LPS stimulated BV2 cells, the IL-1β level is recorded as 42 % of vehicle control, the IL-2 level was 50 % of vehicle control, the IL-6 level is 55 % of vehicle control and the TNF-α level is given as 49 % of vehicle control.
Turning to `Cc1cncn1CCCNC(=O)NC(C)C12CC3CC(CC(C3)C1)C2` (stereo not shown) [Ix, 1-[1-(adamantan-1-yl)ethyl]-3-[3-(5-methyl-1H-imidazol-1-yl)propyl]urea], in data set [1], the Papp was 6.5 ×10⁻⁶ cm/s and the CNS prediction entry was “CNS+ (Compounds of high BBB permeation (CNS+): Pe (10^−6 cm s^−1)>5.26)”. In addition, in data set [2], the IC50 amounted to 59 nM.
For the molecule `Cc1cncn1CCCNC(=O)NC12CC3CC(CC(C)(C3)C1)C2` [Ic, 1-[3-(5-methyl-1H-imidazol-1-yl)propyl]-3-(3-methyladamantan-1-yl)urea], in data set [1], the Papp came out at 10.2 ×10⁻⁶ cm/s and the CNS prediction result is reported as “CNS+ (Compounds of high BBB permeation (CNS+): Pe (10^−6 cm s^−1)>5.26)”. Besides, in data set [2], the IC50 was 13.3 nM.
Turning to `Cc1cncn1CCCNC(=O)NC12CC3CC(CC(F)(C3)C1)C2` [Ig, 1-(3-fluoroadamantan-1-yl)-3-[3-(5-methyl-1H-imidazol-1-yl)propyl]urea], the figures for the IC50 in data set [2] and in data set [3] were 150 nM and 810 nM, respectively.

The values are drawn from US20260092039A1, “DUAL INHIBITORS FOR THE TREATMENT OF ALZHEIMER'S DISEASE” (UNIVERSITAT DE BARCELONA, priority 2023, published 2026).
